Several values for one entry are separate records, joined by “and”; a condition that tells them apart may be missing. Equal entries are not always repeated.
Test: Shake flask solubility of ITN in {DMSO (1) + H2O (2)} mixes, HPLC
Format: physicochemical
Details: 101.1 kPa
Description: A series of {DMSO (1) + H2O (2)} solutions, with DMSO mass percentages ranging from 0.10 to 0.90, was examined. Three replicates of each {DMSO (1) + H2O (2)} combination were taken. ITN’s mole fraction solubility versus mass fraction of DMSO (m = 0.0–1.0) and neat DMSO and H2O was measured using a shake flask approach at 298.2–318.2 K and 101.1 kPa. In essence, the known amounts of each {DMSO (1) + H2O (2)} combination and neat DMSO and H2O were combined with extra ITN crystals in triplicate. The equilibrium was achieved by saturating the resultant mixes in a WiseBath® WSB shaking water bath (Model WSB-18/30/-45, Daihan Scientific Co. Ltd., Seoul, Korea) at a shaking speed of 100 rpm for 72 h. In order to evaluate the equilibrium time, the preliminary experiments were performed at different time intervals. […] The saturated solutions were again removed from the shaker after they had reached equilibrium and centrifuged for 30 min at 5000 rpm. A previously established environmentally friendly HPLC method was used to assess the ITN content after the supernatants were isolated and diluted (as required). The identification of ITN was carried out via a Nucleodur (dimensions: 150 mm × 4.6 mm and particle size: 5 μm) reversed-phase C18 analytical column at 298.2 K. The environmentally friendly mobile used was a binary mixture of ethyl acetate and ethanol (50:50% v v^−1). The mobile phase was delivered with a flow speed of 1 mL min^−1. The ITN measurements were performed at a wavelength of 354 nm. The sample volume was 20 μL, which was injected using a Waters autosampler. The Analytical GREEnness (AGREE) score was determined to evaluate the eco-friendliness nature of the HPLC method. The AGREE score was predicted to be 0.76 for the present HPLC method, indicating the eco-friendly nature of the HPLC method. ITN mole fraction solubilities (xe) were calculated using their standard formulae described in our previous work.

xe experimental solubility (DMSO mass fraction m = 0.2, T = 298.2 K): 3.83 (0.08) × 10^−6 mole fraction
xe experimental solubility (DMSO mass fraction m = 0.2, T = 303.2 K): 5.28 (0.17) × 10^−6 mole fraction
xe experimental solubility (DMSO mass fraction m = 0.2, T = 308.2 K): 7.87 (0.21) × 10^−6 mole fraction
xe experimental solubility (DMSO mass fraction m = 0.2, T = 313.2 K): 1.10 (0.01) × 10^−5 mole fraction
xe experimental solubility (DMSO mass fraction m = 0.2, T = 318.2 K): 1.42 (0.02) × 10^−5 mole fraction
xe experimental solubility (DMSO mass fraction m = 0.3, T = 298.2 K): 1.36 (0.01) × 10^−5 mole fraction
xe experimental solubility (DMSO mass fraction m = 0.3, T = 303.2 K): 1.82 (0.03) × 10^−5 mole fraction
xe experimental solubility (DMSO mass fraction m = 0.3, T = 308.2 K): 2.57 (0.04) × 10^−5 mole fraction
xe experimental solubility (DMSO mass fraction m = 0.3, T = 313.2 K): 3.43 (0.06) × 10^−5 mole fraction
xe experimental solubility (DMSO mass fraction m = 0.3, T = 318.2 K): 4.29 (0.07) × 10^−5 mole fraction
xe experimental solubility (DMSO mass fraction m = 0.4, T = 298.2 K): 4.68 (0.07) × 10^−5 mole fraction
xe experimental solubility (DMSO mass fraction m = 0.4, T = 303.2 K): 6.06 (0.08) × 10^−5 mole fraction
xe experimental solubility (DMSO mass fraction m = 0.4, T = 308.2 K): 8.23 (0.10) × 10^−5 mole fraction
xe experimental solubility (DMSO mass fraction m = 0.4, T = 313.2 K): 1.08 (0.01) × 10^−4 mole fraction
xe experimental solubility (DMSO mass fraction m = 0.4, T = 318.2 K): 1.32 (0.02) × 10^−4 mole fraction
xe experimental solubility (DMSO mass fraction m = 0.5, T = 298.2 K): 1.65 (0.04) × 10^−4 mole fraction
xe experimental solubility (DMSO mass fraction m = 0.5, T = 303.2 K): 2.05 (0.05) × 10^−4 mole fraction
xe experimental solubility (DMSO mass fraction m = 0.5, T = 308.2 K): 2.69 (0.06) × 10^−4 mole fraction
xe experimental solubility (DMSO mass fraction m = 0.5, T = 313.2 K): 3.31 (0.07) × 10^−4 mole fraction
xe experimental solubility (DMSO mass fraction m = 0.5, T = 318.2 K): 3.96 (0.08) × 10^−4 mole fraction
xe experimental solubility (DMSO mass fraction m = 0.6, T = 298.2 K): 5.70 (0.10) × 10^−4 mole fraction
xe experimental solubility (DMSO mass fraction m = 0.6, T = 303.2 K): 6.88 (0.12) × 10^−4 mole fraction
xe experimental solubility (DMSO mass fraction m = 0.6, T = 308.2 K): 8.57 (0.17) × 10^−4 mole fraction
xe experimental solubility (DMSO mass fraction m = 0.6, T = 313.2 K): 1.08 (0.01) × 10^−3 mole fraction
xe experimental solubility (DMSO mass fraction m = 0.6, T = 318.2 K): 1.22 (0.02) × 10^−3 mole fraction
xe experimental solubility (DMSO mass fraction m = 0.7, T = 298.2 K): 2.02 (0.03) × 10^−3 mole fraction
xe experimental solubility (DMSO mass fraction m = 0.7, T = 303.2 K): 2.33 (0.05) × 10^−3 mole fraction
xe experimental solubility (DMSO mass fraction m = 0.7, T = 308.2 K): 2.79 (0.06) × 10^−3 mole fraction
xe experimental solubility (DMSO mass fraction m = 0.7, T = 313.2 K): 3.24 (0.07) × 10^−3 mole fraction
xe experimental solubility (DMSO mass fraction m = 0.7, T = 318.2 K): 3.66 (0.08) × 10^−3 mole fraction
xe experimental solubility (DMSO mass fraction m = 0.8, T = 298.2 K): 6.97 (0.10) × 10^−3 mole fraction
xe experimental solubility (DMSO mass fraction m = 0.8, T = 303.2 K): 7.81 (0.12) × 10^−3 mole fraction
xe experimental solubility (DMSO mass fraction m = 0.8, T = 308.2 K): 8.96 (0.20) × 10^−3 mole fraction
xe experimental solubility (DMSO mass fraction m = 0.8, T = 313.2 K): 1.02 (0.01) × 10^−2 mole fraction
xe experimental solubility (DMSO mass fraction m = 0.8, T = 318.2 K): 1.15 (0.01) × 10^−2 mole fraction
xe experimental solubility (DMSO mass fraction m = 0.9, T = 298.2 K): 2.44 (0.02) × 10^−2 mole fraction
xe experimental solubility (DMSO mass fraction m = 0.9, T = 303.2 K): 2.66 (0.03) × 10^−2 mole fraction
xe experimental solubility (DMSO mass fraction m = 0.9, T = 308.2 K): 2.86 (0.03) × 10^−2 mole fraction
xe experimental solubility (DMSO mass fraction m = 0.9, T = 313.2 K): 3.19 (0.04) × 10^−2 mole fraction
xe experimental solubility (DMSO mass fraction m = 0.9, T = 318.2 K): 3.39 (0.05) × 10^−2 mole fraction
xe experimental solubility (DMSO mass fraction m = 1.0, T = 298.2 K): 8.47 (0.10) × 10^−2 mole fraction
xe experimental solubility (DMSO mass fraction m = 1.0, T = 303.2 K): 8.88 (0.11) × 10^−2 mole fraction
xe experimental solubility (DMSO mass fraction m = 1.0, T = 308.2 K): 9.31 (0.12) × 10^−2 mole fraction
xe experimental solubility (DMSO mass fraction m = 1.0, T = 313.2 K): 9.80 (0.13) × 10^−2 mole fraction
Structure (SMILES): CC1=C(/C=C/C(C)=C/C=C/C(C)=C\C(=O)O)C(C)(C)CCC1 [ITN, isotretinoin]
xe experimental solubility (DMSO mass fraction m = 1.0, T = 318.2 K): 1.02 × 10^−1 mole fraction and 1.02 (0.01) × 10^−1 mole fraction
